Test results reported in patent publication US12559529B2, “NPY2 receptor agonists” (Boehringer Ingelheim International GmbH, priority 2019, dated 2026).
*1 amine or outer side, *2 acyl side, *3 side chain or, on linkers, in order; H or OH if unused. Where a SMILES comes first, the peptide text is derived from it. Side-chain parts run from the residue outwards. The star is where a group is joined. C18 diacid = O=C(O)CCCCCCCCCCCCCCCCC(=O)*; γGlu = O=C(O)[C@H](CCC(=O)[*:2])N[*:1]; Isovaleryl = CC(C)CC(=O)*; AEEA = NCCOCCOCC(=O)O

Key:
normal NMRI mice = experiment: Effect on acute food intake in normal NMRI mice; format: in vivo; details: male NMRI mice, 10 nmol/kg subcutaneously once
Description: Male NMRI mice were obtained from Charles River (Charles River, Research Models & Services Germany GmbH) or from Jan Vier (Jan Vier Labs, France) at 5 weeks of age. […] Room temperature was controlled to 21° C.±1° C., with 60%+20% humidity.
Animals were transferred 5-7 days before the start of the study to a real-time food intake monitoring system, HM-2 system (MBRose, Denmark), to allow acclimatization to experimental conditions. As the animals were uniquely identified with microchips, each individual animal was identified by its microchip upon entry and exit from the food channel. Randomization of the mice for each study group (n=7-8) was based on body weight measured the day before the start of the study. A vehicle-treated (50 mM phosphate buffer pH7 with 5% Mannitol) group was included in each experiment. Six hours before the start of the night phase animals were fasted. One hour before the dark phase animals were dosed once subcutaneously (10 nmol/kg) with test peptide. […] The food intake of the treated groups was normalized (in %) to the average food intake of the group receiving vehicle (Table 7). Statistical significance was evaluated using One-way analysis of variance with Turkey's multiple comparison test. P<0.05 was considered statistically significant.

[1] = molecular target: T1, Human Neuropeptide Y2 Receptor (Homo sapiens, UniProt P49146); experiment: Radioligand binding competition assay (RLB); details: Table 3; human 125I-PYY (1-36) 0.02 nM, Y2 receptor membranes; read-out: Ki
T1 construct: purchased CHEMICON HTS066M
T1 sequence (P49146 1-381): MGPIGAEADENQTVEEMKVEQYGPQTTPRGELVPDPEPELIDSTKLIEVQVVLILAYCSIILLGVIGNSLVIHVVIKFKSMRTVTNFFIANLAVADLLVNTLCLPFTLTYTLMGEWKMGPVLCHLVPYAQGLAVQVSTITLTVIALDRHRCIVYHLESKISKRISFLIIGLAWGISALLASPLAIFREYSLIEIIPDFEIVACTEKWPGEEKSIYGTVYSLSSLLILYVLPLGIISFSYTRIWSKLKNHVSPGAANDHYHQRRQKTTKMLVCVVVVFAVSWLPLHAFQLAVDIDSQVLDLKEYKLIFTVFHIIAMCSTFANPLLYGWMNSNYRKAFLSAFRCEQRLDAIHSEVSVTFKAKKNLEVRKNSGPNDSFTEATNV
In short: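 IC50 values come from nonlinear regression of sigmoidal dose-response curves of filter-bound radioactivity. Peptides competed with radioligand at human Y2 receptor membranes (0.5 μg protein/well) for 2 h at room temperature in pH 7.4 HEPES buffer containing Mg2+, Ca2+ and 0.2% ovalbumin.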

Ki [1] [nM]	SMILES	Acute Food Intake 24 h [% vehicle] (normal NMRI mice)
–	CC(C)CC(=O)N[C@@H](C)C(=O)N1CCC[C@H]1C(=O)N[C@@H](CCC(=O)O)C(=O)N[C@@H](CCCCNC(=O)COCCOCCNC(=O)COCCOCCNC(=O)CC[C@H](NC(=O)CCCCCCCCCCCCCCCCC(=O)O)C(=O)O)C(=O)N1CCC[C@H]1C(=O)N[C@@H](CCC(=O)O)C(=O)N[C@@H](C)C(=O)N[C@@H](CC(=O)O)C(=O)N[C@@H](C)C(=O)N[C@@H](CO)C(=O)N[C@@H](CCC(=O)O)C(=O)N[C@@H](CCC(=O)O)C(=O)N[C@@H](CCC(=O)O)C(=O)N[C@@H](CC(C)C)C(=O)N[C@@H](CCC(N)=O)C(=O)N[C@@H](CCCNC(=N)N)C(=O)N[C@@H](Cc1ccc(O)cc1)C(=O)N[C@@H](Cc1ccc(O)cc1)C(=O)N[C@H](C(=O)N[C@@H](CO)C(=O)N[C@@H](CC(C)C)C(=O)N[C@@H](CCCNC(=N)N)C(=O)N[C@@H](Cc1c[nH]cn1)C(=O)N[C@@H](Cc1ccc(O)cc1)C(=O)N[C@@H](Cc1ccc(O)cc1)C(=O)N[C@@H](CC(N)=O)C(=O)N[C@@H](Cc1c[nH]c2ccccc12)C(=O)N[C@@H](CC(C)C)C(=O)N[C@H](C(=O)N[C@@H](CCCNC(=N)N)C(=O)N[C@@H](CCC(N)=O)C(=O)N[C@@H](CCCNC(=N)N)C(=O)N[C@@H](Cc1ccc(O)cc1)C(N)=O)[C@@H](C)O)C(C)C [Compound 30, N{alpha-4}-(3-methylbutanoyl)-N{epsilon-7}-[2-(2-{2-[2-(2-{2-[(4S)-4-carboxy-4-(17-carboxyheptadecanamido)butanamido]ethoxy}ethoxy)acetamido]ethoxy}ethoxy)acetamido]-[4A,7K,9E,10A,14E,18Q,22V,28Y,30W,31L]hPYY (4-36)]	45
–	CC(C)CC(=O)N[C@@H](C)C(=O)N1CCC[C@H]1C(=O)N[C@@H](CCC(=O)O)C(=O)N[C@@H](CCCCNC(=O)COCCOCCNC(=O)COCCOCCNC(=O)CC[C@H](NC(=O)CCCCCCCCCCCCCCCCC(=O)O)C(=O)O)C(=O)N1CCC[C@H]1C(=O)N[C@@H](CCC(=O)O)C(=O)N[C@@H](CCC(=O)O)C(=O)N[C@@H](CC(=O)O)C(=O)N[C@@H](C)C(=O)N[C@@H](CO)C(=O)N1CCC[C@H]1C(=O)N[C@@H](CCC(=O)O)C(=O)N[C@@H](CCC(=O)O)C(=O)N[C@@H](CC(C)C)C(=O)N[C@@H](CCC(N)=O)C(=O)N[C@@H](CCC(N)=O)C(=O)N[C@@H](Cc1ccc(O)cc1)C(=O)N[C@@H](Cc1ccc(O)cc1)C(=O)N[C@H](C(=O)N[C@@H](CO)C(=O)N[C@@H](CC(C)C)C(=O)N[C@@H](CCCNC(=N)N)C(=O)N[C@@H](Cc1c[nH]cn1)C(=O)N[C@@H](Cc1ccc(O)cc1)C(=O)N[C@@H](Cc1ccc(O)cc1)C(=O)N[C@@H](CC(N)=O)C(=O)N[C@@H](Cc1c[nH]c2ccccc12)C(=O)N[C@@H](CC(C)C)C(=O)N[C@H](C(=O)N[C@@H](CCCNC(=N)N)C(=O)N[C@@H](CCC(N)=O)C(=O)N[C@@H](CCCNC(=N)N)C(=O)N[C@@H](Cc1ccc(O)cc1)C(N)=O)[C@@H](C)O)C(C)C [Compound 58, N{alpha-4}-(3-methylbutanoyl)-N{epsilon-7}-[2-(2-{2-[2-(2-{2-[(4S)-4-carboxy-4-(17-carboxyheptadecanamido)butanamido]ethoxy}ethoxy)acetamido]ethoxy}ethoxy)acetamido]-[4A,7K,9E,18Q,19Q,22V,28Y,30W,31L]hPYY (4-36)]	44
–	CC(C)CC(=O)N[C@@H](C)C(=O)N1CCC[C@H]1C(=O)N[C@@H](CCC(=O)O)C(=O)N[C@@H](CCCCNC(=O)COCCOCCNC(=O)COCCOCCNC(=O)CC[C@H](NC(=O)CCCCCCCCCCCCCCCCC(=O)O)C(=O)O)C(=O)N1CCC[C@H]1C(=O)N[C@@H](CCC(=O)O)C(=O)N[C@@H](CCC(=O)O)C(=O)N[C@@H](CCC(=O)O)C(=O)N[C@@H](C)C(=O)N[C@@H](CO)C(=O)N1CCC[C@H]1C(=O)N[C@@H](CCC(=O)O)C(=O)N[C@@H](CCC(=O)O)C(=O)N[C@@H](CC(C)C)C(=O)N[C@@H](CCC(N)=O)C(=O)N[C@@H](CCCNC(=N)N)C(=O)N[C@@H](Cc1ccc(O)cc1)C(=O)N[C@@H](CCC(=O)O)C(=O)N[C@H](C(=O)N[C@@H](CO)C(=O)N[C@@H](CC(C)C)C(=O)N[C@@H](CCCNC(=N)N)C(=O)N[C@@H](Cc1c[nH]cn1)C(=O)N[C@@H](Cc1ccc(O)cc1)C(=O)N[C@@H](Cc1ccc(O)cc1)C(=O)N[C@@H](CC(N)=O)C(=O)N[C@@H](Cc1c[nH]c2ccccc12)C(=O)N[C@@H](CC(C)C)C(=O)N[C@H](C(=O)N[C@@H](CCCNC(=N)N)C(=O)N[C@@H](CCC(N)=O)C(=O)N[C@@H](CCCNC(=N)N)C(=O)N[C@@H](Cc1ccc(O)cc1)C(N)=O)[C@@H](C)O)C(C)C [Compound 154, N{alpha-4}-(3-methylbutanoyl)-N{epsilon-7}-[2-(2-{2-[2-(2-{2-[(4S)-4-carboxy-4-(17-carboxyheptadecanamido)butanamido]ethoxy}ethoxy)acetamido]ethoxy}ethoxy)acetamido]-[4A,7K,9E,11E,18Q,21E,22V,28Y,30W,31L]hPYY (4-36)] (Isovaleryl-APEK([AEEA-AEEA-γGlu-C18 diacid])PEEEASPEELQRYEVSLRHYYNWLTRQRY-NH2)	73
–	CC(C)CC(=O)N[C@@H](C)C(=O)N1CCC[C@H]1C(=O)N[C@@H](CCC(=O)O)C(=O)N[C@@H](CCCCNC(=O)COCCOCCNC(=O)COCCOCCNC(=O)CC[C@H](NC(=O)CCCCCCCCCCCCCCCCC(=O)O)C(=O)O)C(=O)N1CCC[C@H]1C(=O)N[C@@H](CCC(=O)O)C(=O)N[C@@H](C)C(=O)N[C@@H](CC(=O)O)C(=O)N[C@@H](C)C(=O)N[C@@H](CO)C(=O)N1CCC[C@H]1C(=O)N[C@@H](CCC(=O)O)C(=O)N[C@@H](CCC(=O)O)C(=O)N[C@@H](CC(C)C)C(=O)N[C@@H](CCC(=O)O)C(=O)N[C@@H](CCC(N)=O)C(=O)N[C@@H](Cc1ccc(O)cc1)C(=O)N[C@@H](Cc1ccc(O)cc1)C(=O)N[C@H](C(=O)N[C@@H](CO)C(=O)N[C@@H](CC(C)C)C(=O)N[C@@H](CCCNC(=N)N)C(=O)N[C@@H](Cc1c[nH]cn1)C(=O)N[C@@H](Cc1ccc(O)cc1)C(=O)N[C@@H](Cc1ccc(O)cc1)C(=O)N[C@@H](CC(N)=O)C(=O)N[C@@H](Cc1c[nH]c2ccccc12)C(=O)N[C@@H](CC(C)C)C(=O)N[C@H](C(=O)N[C@@H](CCCNC(=N)N)C(=O)N[C@@H](CCC(N)=O)C(=O)N[C@@H](CCCNC(=N)N)C(=O)N[C@@H](Cc1ccc(O)cc1)C(N)=O)[C@@H](C)O)C(C)C [Compound 159, N{alpha-4}-(3-methylbutanoyl)-N{epsilon-7}-[2-(2-{2-[2-(2-{2-[(4S)-4-carboxy-4-(17-carboxyheptadecanamido)butanamido]ethoxy}ethoxy)acetamido]ethoxy}ethoxy)acetamido]-[4A,7K,9E,10A,18E,19Q,22V,28Y,30W,31L]hPYY (4-36)]	53
2.07	CC(C)CC(=O)N[C@@H](C)C(=O)N1CCC[C@H]1C(=O)N[C@@H](CCC(=O)O)C(=O)N[C@@H](CCCCNC(=O)COCCOCCNC(=O)COCCOCCNC(=O)CC[C@H](NC(=O)CCCCCCCCCCCCCCCCC(=O)O)C(=O)O)C(=O)N1CCC[C@H]1C(=O)N[C@@H](CCC(=O)O)C(=O)N[C@@H](CCC(=O)O)C(=O)N[C@@H](CCC(=O)O)C(=O)N[C@@H](C)C(=O)N[C@@H](CO)C(=O)N1CCC[C@H]1C(=O)N[C@@H](CCC(=O)O)C(=O)N[C@@H](CCC(=O)O)C(=O)N[C@@H](CC(C)C)C(=O)N[C@@H](CCC(N)=O)C(=O)N[C@@H](CCC(N)=O)C(=O)N[C@@H](Cc1ccc(O)cc1)C(=O)N[C@@H](Cc1ccc(O)cc1)C(=O)N[C@H](C(=O)N[C@@H](CO)C(=O)N[C@@H](CC(C)C)C(=O)N[C@@H](CCCNC(=N)N)C(=O)N[C@@H](Cc1c[nH]cn1)C(=O)N[C@@H](Cc1ccc(O)cc1)C(=O)N[C@@H](Cc1ccc(O)cc1)C(=O)N[C@@H](CC(N)=O)C(=O)N[C@@H](Cc1c[nH]c2ccccc12)C(=O)N[C@@H](CC(C)C)C(=O)N[C@H](C(=O)N[C@@H](CCCNC(=N)N)C(=O)N[C@@H](CCC(N)=O)C(=O)N[C@@H](CCCNC(=N)N)C(=O)N[C@@H](Cc1ccc(O)cc1)C(N)=O)[C@@H](C)O)C(C)C [Compound 243, N{alpha-4}-(3-methylbutanoyl)-N{epsilon-7}-[2-(2-{2-[2-(2-{2-[(4S)-4-carboxy-4-(17-carboxyheptadecanamido)butanamido]ethoxy}ethoxy)acetamido]ethoxy}ethoxy)acetamido]-[4A,7K,9E,11E,18Q,19Q,22V,28Y,30W,31L]hPYY (4-36)] (Isovaleryl-APEK([AEEA-AEEA-γGlu-C18 diacid])PEEEASPEELQQYYVSLRHYYNWLTRQRY-NH2)	–
